{
  "source": "patent US6822112B1",
  "about": "“Prostaglandin derivatives” (Taisho Pharmaceutical Co., Ltd., priority 1999, dated 2004)",
  "tested_on": "EBTr [NBL-4] cell derived from bovine embryonic trachea",
  "assay": "Measurement of cAMP production promoting action in EBTr [NBL-4] cell",
  "type": "cell-based",
  "conditions": "1 × 10^−9 M concentration of compound added; EBTr [NBL-4] cells, 15 minutes with 0.5 mM 3-isobutyl-1-methylxanthine; cAMP EIA",
  "protocol": "Measurement of cAMP production promoting action in EBTr [NBL-4] cell derived from bovine embryonic trachea\nAccording to the method of Ito et al. in Br. J. Pharmacol., vol. 99, page 13 (1990), the following test was carried out.\nThat is, EBTr [NBL-4] cells derived from bovine embryonic trachea (produced by Dainippon Pharmaceutical Co.) were inoculated on 24-well plates (6×10^4 cells/well) (manufactured by Sumitomo Bakelite Co.), and cultured on a growth medium (MEM Earle's medium including 10% calf serum, 2 mM glutamine and non-essential amino acids) for 48 hours, followed by cultivation on 0.5 ml of a growth medium including the test compound and 0.5 mM 3-isobutyl-1-methylxanthine for 15 minutes. After the completion of the reaction, the cells were washed with a phosphate buffer (not including Ca^++ and Mg^++), 0.6 ml of 65% aqueous ethanol solution was added, followed by allowing to stand at 4° C. for an hour, and the resulting cAMP was extracted. After evaporation of the solvent by a centrifugal evaporator, the amount of cAMP was measured by using a cAMP EIA System (manufactured by Amersham Co.).",
  "data": [
    {"smiles": "O=C(O)c1ccc(CCCC2C(Cl)CC(O)C2C#CC(O)C2CCCCC2)cc1", "note": "(stereo not drawn) [Compound 35, 9-Deoxy-9β-chloro-2,3,4,16,17,18,19,20-octanor-1,5-inter-p-phenylene-15-cyclohexyl-13,14-didehydro-PGF1α]", "values": [
      {"measurement": "cAMP production promoting action (percent to PGD2)", "result": "150 percent to PGD2"}
    ]}
  ]
}
